Reference: US9730444B2, “Herbicidal compositions comprising isoxaben and aminopyralid” (Dow AgroSciences LLC, priority 2013, dated 2017)

Key:
[1] = system: GERDI = Geranium dissectum (cutleaf geranium); test: Small plot field trial in winter wheat, foliar-applied, visual % control of GERDI; type: in vivo; conditions: Trial 1, observed mean, 200 L/ha water, winter wheat crop stage 12-13, rates: isoxaben 40 g ai/ha, aminopyralid 5 g ae/ha, flufenacet 200 g ai/ha, diflufenican 100 g ai/ha
Description: (§1) Results in Table 1 are for foliar-applied compositions in small plot research experiments to evaluate the efficacy of the compositions in winter wheat. Application water volume was 200 liters per hectare (L/ha). Crop stage at time of application was 12-13. The values reported are means. […] Colby's equation was used to determine the herbicidal effects expected from the mixtures (Colby, S. R. Calculation of the synergistic and antagonistic response of herbicide combinations. Weeds 1967, 15, 20-22.).
(§2) More specifically, the following equation is used to calculate the expected activity of mixtures containing two herbicical active ingredients: Expected=A+B−(A×B/100) • A=observed efficacy of a first active ingredient at the same concentration as used in the mixture; • B=observed efficacy of the second active ingredient (or product, which may contain a combination of active ingredients) at the same concentration as used in the mixture. For mixtures containing three herbicidal active ingredients, the following equation was used to calculate the expected activity:
(§3) [formula] • A=observed efficacy of a first active ingredient at the same concentration as used in the mixture; • B=observed efficacy of a second active ingredient B at the same concentration as used in the mixture; • C=observed efficacy of a third active ingredient C at the same concentration as used in the mixture. The following abbreviations are used in Table 1: • GERDI=Geranium dissectum (cutleaf geranium) • STEME=Stellaria media (L.) Vill. (common chickweed) • g ai/ha=grams active ingredient per hectare • g ae/ha=grams acid equivalent per hectare • Ob=observed value of percent (%) control rated visually • Ex=expected value of percent (%) control as calculated by Colby's equation

[2] = system: STEME = Stellaria media (L.) Vill. (common chickweed); test: Small plot field trial in winter wheat, foliar-applied, visual % control of STEME; type: in vivo; conditions: Trial 1, observed mean, 200 L/ha water, winter wheat crop stage 12-13, rates: isoxaben 40 g ai/ha, aminopyralid 5 g ae/ha, flufenacet 200 g ai/ha, diflufenican 100 g ai/ha
Description: as §1, §2, §3

SMILES	VISUAL % CONTROL OF GERDI 28 DAT Ob [1]	VISUAL % CONTROL OF STEME 28 DAT Ob [2]
Nc1cc(Cl)nc(C(=O)O)c1Cl [aminopyralid, 4-amino-3,6-dichloropyridine-2-carboxylic acid]	0 d %	0 e %
CCC(C)(CC)c1cc(NC(=O)c2c(OC)cccc2OC)on1 [isoxaben, N-[3-(1-ethyl-1-methylpropyl)isoxazol-5-yl]-2,6-dimethoxybenzamide]	0 d %	0 e %
CC(C)N(C(=O)COc1nnc(C(F)(F)F)s1)c1ccc(F)cc1 [flufenacet, N-(4-fluorophenyl)-N-(1-methylethyl)-2-[[5-(trifluoromethyl)-1,3,4-thiadiazol-2-yl]oxy]acetamide]	0 d %	0 e %
